Measured values published in patent EP3375430A1, “FRAGRANCE COMPOSITIONS” (Takasago International Corporation, priority 2017, dated 2018).
Values belong to the compound of their own block, whether it stands above or below them.

Test: Amount of fragrance ingredients retained on paper blotter after evaporation (ethanol extraction, GC-MS)
Format: physicochemical
Experimental: A fragrance (hereafter fragrance TAK, the formulation of which is shown in table 1) was formulated in a typical Eau de Toilette (EdT1) or in fragrance compositions according to the invention (compositions C1 to C4), as shown in table 2. The amount of individual fragrance ingredients retained on paper substrate (blotter) after set time periods was assessed by the following method.
100µL samples of either EdT1 or compositions C1 to C4 were applied to 4.5cm long standard paper blotters with a microsyringe. Three replicate blotters were prepared for each extraction time. After the appropriate evaporation time each of the 3 blotters was transferred to a 30mL glass bottle. 3mL of ethanol and 50µL of a 1% solution of methyl decanoate in ethanol as an internal standard were added. The bottle was sealed and placed on a roller bed to extract the blotter for 1 hour. A sample of the extracting solution was transferred to a vial which was sealed and analysed by gas chromatography (GC 6890) with a Mass Spectrometer detector (MS 5973) using the method described below. The results of the three replicate measurements were averaged. At exact times the same extraction was repeated on the remaining blotters which were stored on a warm surface at 32°C open to the air to allow evaporation. The gas chromatography conditions were as given below.
• Initial Temp: 50°C • Initial Time: 2 min • Rate: 10°C /min • Final Temp: 280°C • Final Time: 5 min • Run Time: 30 min
• Column: HP-5MS 30m * 0.25mm * 0.25µm • Gas: Helium • Constant Pressure 18.55 psi
• Split mode Ratio 40:1 • Inlet Temp: 250°C
• MS 5973 • Mass range: 35 to 350 • Threshold: 100 • Mass Quad: 150°C • Mass Source: 230°C
To simplify the results the average amount of each fragrance ingredient from the 3 samples measured at time zero was set at 100% and all other measurements were then related to that value so tables 3 to 6 show decreasing amounts of fragrance ingredients as a percentage of the initial amount.
The method of example 1 was repeated using a commercial fragrance (hereafter fragrance COM1, the formulation of which is given in table 7) formulated in a typical Eau de Toilette (EdT2) or in fragrance compositions according to the invention (compositions C5 and C6), as shown in table 8.

[1] = Table 9, fragrance COM1 in C5, T0 + 15 min
[2] = Table 9, fragrance COM1 in C5, T0 + 480 min
[3] = Table 9, fragrance COM1 in C5, T0 +1440 min
[4] = Table 9, fragrance COM1 in C6, T0 + 15 min
[5] = Table 9, fragrance COM1 in C6, T0 + 480 min
[6] = Table 9, fragrance COM1 in C6, T0 +1440 min
[7] = Table 9, fragrance COM1 in EdT2, C5 or C6, T0, set at 100% (normalisation)
[8] = Table 9, fragrance COM1 in EdT2, T0 + 15 min
[9] = Table 9, fragrance COM1 in EdT2, T0 + 480 min
[10] = Table 9, fragrance COM1 in EdT2, T0 +1440 min

- amount of fragrance ingredient retained on blotter (percentage of the initial amount) [1]: 85.4%
- amount of fragrance ingredient retained on blotter (percentage of the initial amount) [2]: 68.9%
- amount of fragrance ingredient retained on blotter (percentage of the initial amount) [3]: 40.11%
- amount of fragrance ingredient retained on blotter (percentage of the initial amount) [4]: 75.6%
- amount of fragrance ingredient retained on blotter (percentage of the initial amount) [5]: 52.6%
- amount of fragrance ingredient retained on blotter (percentage of the initial amount) [6]: 29.9%
- amount of fragrance ingredient retained on blotter (percentage of the initial amount) [7]: 100%
- amount of fragrance ingredient retained on blotter (percentage of the initial amount) [8]: 81.5%
- amount of fragrance ingredient retained on blotter (percentage of the initial amount) [9]: 56.6%
- amount of fragrance ingredient retained on blotter (percentage of the initial amount) [10]: 15.42%
Compound: CC1(C)CCC[C@]2(C)[C@H]3CCO[C@]3(C)CC[C@@H]12 [Ambroxan™, (3aR,5aS,9aS,9bR)-3a,6,6,9a-tetramethyl-2,4,5,5a,7,8,9,9b-octahydro-1H-benzo[e][1]benzofuran]

- amount of fragrance ingredient retained on blotter (percentage of the initial amount) [1]: 86%
- amount of fragrance ingredient retained on blotter (percentage of the initial amount) [2]: 59.8%
- amount of fragrance ingredient retained on blotter (percentage of the initial amount) [3]: 28.82%
- amount of fragrance ingredient retained on blotter (percentage of the initial amount) [4]: 75.6%
- amount of fragrance ingredient retained on blotter (percentage of the initial amount) [5]: 43.6%
- amount of fragrance ingredient retained on blotter (percentage of the initial amount) [6]: 20.9%
- amount of fragrance ingredient retained on blotter (percentage of the initial amount) [7]: 100%
- amount of fragrance ingredient retained on blotter (percentage of the initial amount) [8]: 81.4%
- amount of fragrance ingredient retained on blotter (percentage of the initial amount) [9]: 43.9%
- amount of fragrance ingredient retained on blotter (percentage of the initial amount) [10]: 13.42%
Compound: CC(C)(C)c1ccc(CCC=O)cc1 [Bourgeonal™, 3-(4-tert-butylphenyl)propanal]

- amount of fragrance ingredient retained on blotter (percentage of the initial amount) [1]: 85.8%
- amount of fragrance ingredient retained on blotter (percentage of the initial amount) [2]: 45.2%
- amount of fragrance ingredient retained on blotter (percentage of the initial amount) [3]: 14.71%
- amount of fragrance ingredient retained on blotter (percentage of the initial amount) [4]: 75.4%
- amount of fragrance ingredient retained on blotter (percentage of the initial amount) [5]: 33.2%
- amount of fragrance ingredient retained on blotter (percentage of the initial amount) [6]: 12.0%
- amount of fragrance ingredient retained on blotter (percentage of the initial amount) [7]: 100%
- amount of fragrance ingredient retained on blotter (percentage of the initial amount) [8]: 81.5%
- amount of fragrance ingredient retained on blotter (percentage of the initial amount) [9]: 30.7%
- amount of fragrance ingredient retained on blotter (percentage of the initial amount) [10]: 7.12%
Compound: CC(C=O)Cc1ccc(C(C)C)cc1 (stereo not drawn) [Cyclamen aldehyde]

- amount of fragrance ingredient retained on blotter (percentage of the initial amount) [1]: 81.9%
- amount of fragrance ingredient retained on blotter (percentage of the initial amount) [2]: 20.5%
- amount of fragrance ingredient retained on blotter (percentage of the initial amount) [3]: 2.12%
- amount of fragrance ingredient retained on blotter (percentage of the initial amount) [4]: 74.8%
- amount of fragrance ingredient retained on blotter (percentage of the initial amount) [5]: 14.7%
- amount of fragrance ingredient retained on blotter (percentage of the initial amount) [6]: 1.9%
- amount of fragrance ingredient retained on blotter (percentage of the initial amount) [7]: 100%
- amount of fragrance ingredient retained on blotter (percentage of the initial amount) [8]: 78.2%
- amount of fragrance ingredient retained on blotter (percentage of the initial amount) [9]: 10.6%
- amount of fragrance ingredient retained on blotter (percentage of the initial amount) [10]: 4.25%
Compound: CC=CC(=O)C1=C(C)CCCC1(C)C [Damascone beta]

- amount of fragrance ingredient retained on blotter (percentage of the initial amount) (Table 3, fragrance TAK in C1, 15 min, 32°C): 81%
- amount of fragrance ingredient retained on blotter (percentage of the initial amount) (Table 3, fragrance TAK in C1, 60 min, 32°C): 79%
- amount of fragrance ingredient retained on blotter (percentage of the initial amount) (Table 3, fragrance TAK in C1, 120 min, 32°C): 81%
- amount of fragrance ingredient retained on blotter (percentage of the initial amount) (Table 3, fragrance TAK in C1, 240 min, 32°C): 86%
- amount of fragrance ingredient retained on blotter (percentage of the initial amount) (Table 3, fragrance TAK in C1, 480 min, 32°C): 79%
- amount of fragrance ingredient retained on blotter (percentage of the initial amount) (Table 3, fragrance TAK in EdT1, 15 min, 32°C): 88%
- amount of fragrance ingredient retained on blotter (percentage of the initial amount) (Table 3, fragrance TAK in EdT1, 60 min, 32°C): 85%
- amount of fragrance ingredient retained on blotter (percentage of the initial amount) (Table 3, fragrance TAK in EdT1, 120 min, 32°C): 90%
- amount of fragrance ingredient retained on blotter (percentage of the initial amount) (Table 3, fragrance TAK in EdT1, 240 min, 32°C): 98%
- amount of fragrance ingredient retained on blotter (percentage of the initial amount) (Table 3, fragrance TAK in EdT1, 480 min, 32°C): 100%
- amount of fragrance ingredient retained on blotter (percentage of the initial amount) (Table 3, fragrance TAK in EdT1 or C1, T0, set at 100% (normalisation)): 100%
- amount of fragrance ingredient retained on blotter (percentage of the initial amount) (Table 4, fragrance TAK in C2, 15 min, 32°C): 97%
- amount of fragrance ingredient retained on blotter (percentage of the initial amount) (Table 4, fragrance TAK in C2, 480 min, 32°C): 77%
- amount of fragrance ingredient retained on blotter (percentage of the initial amount) (Table 4, fragrance TAK in EdT1, 15 min, 32°C): 87%
- amount of fragrance ingredient retained on blotter (percentage of the initial amount) (Table 4, fragrance TAK in EdT1, 480 min, 32°C): 73%
- amount of fragrance ingredient retained on blotter (percentage of the initial amount) (Table 4, fragrance TAK in EdT1 or C2, T0, set at 100% (normalisation)): 100%
- amount of fragrance ingredient retained on blotter (percentage of the initial amount) (Table 5, fragrance TAK in C3, 15 min, 32°C): 80%
- amount of fragrance ingredient retained on blotter (percentage of the initial amount) (Table 5, fragrance TAK in C3, 60 min, 32°C): 93%
- amount of fragrance ingredient retained on blotter (percentage of the initial amount) (Table 5, fragrance TAK in C3, 120 min, 32°C): 93%
- amount of fragrance ingredient retained on blotter (percentage of the initial amount) (Table 5, fragrance TAK in C3, 240 min, 32°C): 100%
- amount of fragrance ingredient retained on blotter (percentage of the initial amount) (Table 5, fragrance TAK in C3, 480 min, 32°C): 82%
- amount of fragrance ingredient retained on blotter (percentage of the initial amount) (Table 5, fragrance TAK in C3, 1440 min, 32°C): 96%
- amount of fragrance ingredient retained on blotter (percentage of the initial amount) (Table 5, fragrance TAK in EdT1, 15 min, 32°C): 88%
- amount of fragrance ingredient retained on blotter (percentage of the initial amount) (Table 5, fragrance TAK in EdT1, 60 min, 32°C): 85%
- amount of fragrance ingredient retained on blotter (percentage of the initial amount) (Table 5, fragrance TAK in EdT1, 120 min, 32°C): 90%
- amount of fragrance ingredient retained on blotter (percentage of the initial amount) (Table 5, fragrance TAK in EdT1, 240 min, 32°C): 98%
- amount of fragrance ingredient retained on blotter (percentage of the initial amount) (Table 5, fragrance TAK in EdT1, 480 min, 32°C): 100%
- amount of fragrance ingredient retained on blotter (percentage of the initial amount) (Table 5, fragrance TAK in EdT1, 1440 min, 32°C): 85%
- amount of fragrance ingredient retained on blotter (percentage of the initial amount) (Table 5, fragrance TAK in EdT1 or C3, T0, set at 100% (normalisation)): 100%
- amount of fragrance ingredient retained on blotter (percentage of the initial amount) (Table 6, fragrance TAK in C4, 15 min, 32°C): 100%
- amount of fragrance ingredient retained on blotter (percentage of the initial amount) (Table 6, fragrance TAK in C4, 60 min, 32°C): 93%
- amount of fragrance ingredient retained on blotter (percentage of the initial amount) (Table 6, fragrance TAK in C4, 120 min, 32°C): 96%
- amount of fragrance ingredient retained on blotter (percentage of the initial amount) (Table 6, fragrance TAK in C4, 240 min, 32°C): 100%
- amount of fragrance ingredient retained on blotter (percentage of the initial amount) (Table 6, fragrance TAK in C4, 480 min, 32°C): 100%
- amount of fragrance ingredient retained on blotter (percentage of the initial amount) (Table 6, fragrance TAK in EdT1, 15 min, 32°C): 88%
- amount of fragrance ingredient retained on blotter (percentage of the initial amount) (Table 6, fragrance TAK in EdT1, 60 min, 32°C): 85%
- amount of fragrance ingredient retained on blotter (percentage of the initial amount) (Table 6, fragrance TAK in EdT1, 120 min, 32°C): 90%
- amount of fragrance ingredient retained on blotter (percentage of the initial amount) (Table 6, fragrance TAK in EdT1, 240 min, 32°C): 98%
- amount of fragrance ingredient retained on blotter (percentage of the initial amount) (Table 6, fragrance TAK in EdT1, 480 min, 32°C): 100%
- amount of fragrance ingredient retained on blotter (percentage of the initial amount) (Table 6, fragrance TAK in EdT1 or C4, T0, set at 100% (normalisation)): 100%
Compound: O=C1CCCCCCCCCCCC(=O)OCCO1 [Ethylene Brassylate]

- amount of fragrance ingredient retained on blotter (percentage of the initial amount) [1]: 84.0%
- amount of fragrance ingredient retained on blotter (percentage of the initial amount) [2]: 32.8%
- amount of fragrance ingredient retained on blotter (percentage of the initial amount) [3]: 5.68%
- amount of fragrance ingredient retained on blotter (percentage of the initial amount) [4]: 74.2%
- amount of fragrance ingredient retained on blotter (percentage of the initial amount) [5]: 23.3%
- amount of fragrance ingredient retained on blotter (percentage of the initial amount) [6]: 5.2%
- amount of fragrance ingredient retained on blotter (percentage of the initial amount) [7]: 100%
- amount of fragrance ingredient retained on blotter (percentage of the initial amount) [8]: 79.2%
- amount of fragrance ingredient retained on blotter (percentage of the initial amount) [9]: 16.4%
- amount of fragrance ingredient retained on blotter (percentage of the initial amount) [10]: 3.77%
Compound: Methyl ionone gamma
